Test: xn = mol fraction of the nth substance listed
Conditions: 92.3 kPa, Liquid; for viscosity: Concentric cylinders viscometry; for speed of sound: Frequency=3 MHz, Single path-length method; for mass density: Vibrating tube method

OCCOCCO [diethylene glycol] + O
Conditions | mass density, 303.15 K [kg/m3] | mass density, 308.15 K [kg/m3] | speed of sound, 303.15 K [m/s] | speed of sound, 308.15 K [m/s] | viscosity, 303.15 K [mPa·s] | viscosity, 308.15 K [mPa·s]
x1 = 0.0097 | 1003.37 | 1001.63 | 1533.2 | 1542 | – | –
x1 = 0.0201 | 1010.67 | 1008.81 | 1557.2 | 1564 | – | –
x1 = 0.0297 | 1017 | 1015.02 | 1577.4 | 1582.4 | – | –
x1 = 0.0397 | 1023.28 | 1021.17 | 1596.1 | 1599.4 | – | –
x1 = 0.049 | 1028.58 | 1026.33 | – | – | 1.6 | 1.413
x1 = 0.0502 | 1029.24 | 1026.99 | 1614 | 1615.7 | – | –
x1 = 0.0591 | 1033.98 | 1031.63 | 1627.4 | 1627.8 | – | –
x1 = 0.0703 | 1039.6 | 1037.11 | 1642.7 | 1641.6 | – | –
x1 = 0.0796 | 1043.88 | 1041.29 | 1653.2 | 1650.9 | – | –
x1 = 0.0897 | 1048.13 | 1045.45 | 1663.2 | 1659.9 | – | –
x1 = 0.0992 | 1051.97 | 1049.2 | – | – | 2.605 | 2.273
x1 = 0.1004 | 1052.46 | 1049.66 | 1672.7 | 1668.3 | – | –
x1 = 0.149 | 1068.06 | 1064.94 | – | – | 3.83 | 3.297
x1 = 0.1507 | 1068.42 | 1065.27 | 1698.5 | 1690.5 | – | –
x1 = 0.1996 | 1079.15 | 1075.79 | 1705.1 | 1695.2 | – | –
x1 = 0.1998 | 1079.37 | 1076.01 | – | – | 5.27 | 4.501
x1 = 0.2467 | 1086.77 | 1083.27 | 1701.8 | 1690.9 | – | –
x1 = 0.249 | 1086.95 | 1083.44 | – | – | 6.766 | 5.753
x1 = 0.2943 | 1091.84 | 1088.25 | 1694.1 | 1682.5 | – | –
x1 = 0.2987 | 1092.38 | 1088.8 | – | – | 8.326 | 7.056
x1 = 0.3501 | 1096.45 | 1092.82 | – | – | 9.951 | 8.401
x1 = 0.3511 | 1096.61 | 1092.99 | 1681.7 | 1669.7 | – | –
x1 = 0.3995 | 1099.42 | 1095.83 | 1670.2 | 1658 | – | –
x1 = 0.4007 | 1099.43 | 1095.8 | – | – | 11.5 | 9.648
x1 = 0.4504 | 1101.7 | 1098.07 | – | – | 12.97 | 10.79
x1 = 0.4527 | 1101.88 | 1098.24 | 1657.7 | 1645.4 | – | –
x1 = 0.4973 | 1103.4 | 1099.78 | – | – | 14.26 | 11.82
x1 = 0.5008 | 1103.56 | 1099.92 | 1646.6 | 1634.3 | – | –
x1 = 0.5449 | 1104.75 | 1101.11 | 1637.3 | 1625 | – | –
x1 = 0.553 | 1105 | 1101.38 | – | – | 15.69 | 12.94
x1 = 0.5834 | 1105.61 | 1101.98 | 1629.2 | 1617 | – | –
x1 = 0.5938 | 1105.91 | 1102.29 | – | – | 16.62 | 13.67
x1 = 0.6482 | 1106.76 | 1103.13 | 1616.6 | 1604.4 | – | –
x1 = 0.6514 | 1106.89 | 1103.27 | – | – | 17.9 | 14.67
x1 = 0.6864 | 1107.34 | 1103.72 | – | – | 18.56 | 15.18
x1 = 0.6982 | 1107.42 | 1103.8 | 1608.1 | 1596 | – | –
x1 = 0.7444 | 1107.94 | 1104.33 | 1600.4 | 1588.3 | – | –
x1 = 0.7556 | 1108.01 | 1104.38 | – | – | 19.68 | 16.06
x1 = 0.7962 | 1108.41 | 1104.81 | 1592.7 | 1580.7 | – | –
x1 = 0.7999 | 1108.35 | 1104.73 | – | – | 20.32 | 16.57
x1 = 0.8401 | 1108.74 | 1105.14 | 1586.6 | 1574.5 | – | –
x1 = 0.8525 | 1108.74 | 1105.13 | – | – | 20.98 | 17.08
x1 = 0.8947 | 1109.09 | 1105.49 | 1579.5 | 1567.5 | – | –
x1 = 0.9002 | 1109.09 | 1105.5 | – | – | 21.55 | 17.53
x1 = 0.9092 | 1109.17 | 1105.58 | 1577.7 | 1565.7 | – | –
x1 = 0.919 | 1109.23 | 1105.64 | 1576.5 | 1564.5 | – | –
x1 = 0.9303 | 1109.27 | 1105.68 | 1575.3 | 1563.3 | – | –
x1 = 0.9393 | 1109.28 | 1105.69 | 1574.3 | 1562.3 | – | –
x1 = 0.9473 | 1109.36 | 1105.77 | 1573.3 | 1561.4 | – | –
x1 = 0.9554 | 1109.45 | 1105.86 | – | – | 22.07 | 17.95
x1 = 0.9566 | 1109.41 | 1105.82 | 1572.2 | 1560.2 | – | –
x1 = 0.9694 | 1109.47 | 1105.88 | 1570.8 | 1558.9 | – | –
x1 = 0.9801 | 1109.52 | 1105.93 | 1569.6 | 1557.7 | – | –
x1 = 0.9915 | 1109.56 | 1105.97 | 1568.3 | 1556.4 | – | –
x1 = 1 | 1109.6 | 1106.01 | 1567.2 | 1555.3 | 22.48 | 18.27
